# Measurements as given in patent US5428061A, “Organic nitrates and method for their preparation” (Schwarz Pharma AG, priority 1988, dated 1995).
# Where two headings read alike, the source gives them in different places.
# Experiments:
# [1] = test system: circulatory parameters of a dog that is awake; experiment: Action of organic nitrates on circulatory parameters of the awake dog after intravenous or oral administration; format: in vivo; settings: awake beagle dogs
# Method: Administration of new organic nitrates to detect the nitrate action on the circulatory parameters of a dog that is awake.
# The purpose of the test is to determine how the new organic nitrates act on various circulatory parameters of a dog that is awake after intravenous or oral administration. All experiments were carried out on trained beagle dogs; the circulatory parameters were measured with an arterial catheter tip manometer and a balloon catheter introduced into the V. jugularis. In order to describe the action on the arterial system, the systolic, mean and diastolic blood pressure (BP) and heart rate (HR) were measured. […] The low pressure system was measured through the central venous pressure (CVP) and the pulmonary arterial pressure (PAP). The control or reference product used was isosorbid-5-mononitrate (ISM-5).
# guinea pig heart = experiment: Coronary flow in working heart model (guinea pig heart); settings: for EC25: Cavia porcellus, read-out: concentration for a coronary flow increase of 25%
# Method: Finally, the action of N-(3-nitratopivaloyl)-cysteine ethyl ester (Nitrato-Piv-Cy-Et) was characterized on guinea pig heart. […] A flow increase of 25% is achieved even with 380 μg of nitrato-Piv-Cy-Et per liter of perfusion medium, corresponding to 1.3 μmole per liter. The corresponding concentration for glycerol trinitrate (GTN) with 5 mg/liter is at least a factor of 12 times higher. Thus, in the case of Nitrato-Piv-Cy-Et we are dealing with an especially active compound with regard to the vessels.
# isolated guanyl cyclase = biological target: T1, isolated guanyl cyclase (Homo sapiens, UniProt Q02153); experiment: Activation of isolated guanyl cyclase (cGMP formation); format: biochemical; settings: isolated enzyme; for EC50: read-out: concentration necessary for one-half of the maximum activity (ED50) of guanyl cyclase
# T1 sequence (Q02153 1-619): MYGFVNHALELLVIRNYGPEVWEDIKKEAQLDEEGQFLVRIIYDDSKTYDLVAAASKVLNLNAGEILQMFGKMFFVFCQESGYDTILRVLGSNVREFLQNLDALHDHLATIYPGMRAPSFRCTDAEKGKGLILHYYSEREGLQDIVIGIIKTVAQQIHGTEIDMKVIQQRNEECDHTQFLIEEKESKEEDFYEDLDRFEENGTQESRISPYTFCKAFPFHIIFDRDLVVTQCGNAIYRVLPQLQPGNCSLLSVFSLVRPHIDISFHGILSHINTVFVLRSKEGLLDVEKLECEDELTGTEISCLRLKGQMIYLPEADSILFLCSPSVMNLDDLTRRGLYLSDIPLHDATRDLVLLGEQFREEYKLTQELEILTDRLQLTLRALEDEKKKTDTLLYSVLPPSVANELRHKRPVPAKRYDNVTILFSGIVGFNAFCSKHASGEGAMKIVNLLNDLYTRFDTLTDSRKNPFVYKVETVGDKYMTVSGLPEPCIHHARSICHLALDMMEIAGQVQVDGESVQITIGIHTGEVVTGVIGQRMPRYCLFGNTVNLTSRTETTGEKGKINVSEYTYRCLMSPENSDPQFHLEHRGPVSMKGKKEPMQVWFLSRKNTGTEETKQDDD
# T1 sequence (Q02108 1-690 partner): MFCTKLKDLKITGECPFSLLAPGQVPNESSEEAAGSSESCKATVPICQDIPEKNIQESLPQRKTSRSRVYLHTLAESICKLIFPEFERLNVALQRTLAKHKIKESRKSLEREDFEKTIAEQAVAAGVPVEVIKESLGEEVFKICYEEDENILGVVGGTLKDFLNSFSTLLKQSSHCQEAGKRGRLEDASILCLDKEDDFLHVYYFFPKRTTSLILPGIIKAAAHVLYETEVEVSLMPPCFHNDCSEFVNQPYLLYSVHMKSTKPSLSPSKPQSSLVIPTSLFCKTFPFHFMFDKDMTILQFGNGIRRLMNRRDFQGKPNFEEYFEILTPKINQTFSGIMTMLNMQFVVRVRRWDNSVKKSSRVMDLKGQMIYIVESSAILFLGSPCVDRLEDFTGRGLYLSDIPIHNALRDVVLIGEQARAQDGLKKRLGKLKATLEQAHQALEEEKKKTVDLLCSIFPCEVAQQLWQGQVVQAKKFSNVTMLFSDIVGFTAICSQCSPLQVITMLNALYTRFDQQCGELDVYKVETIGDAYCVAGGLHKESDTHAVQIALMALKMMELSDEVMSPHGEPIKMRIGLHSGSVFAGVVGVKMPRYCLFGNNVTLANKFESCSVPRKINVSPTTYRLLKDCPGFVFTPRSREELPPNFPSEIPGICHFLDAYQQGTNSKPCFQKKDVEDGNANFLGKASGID
# From the text: The concentration necessary for one-half of the maximum activity (ED50) of guanyl cyclase is around 200 μmole/liter. The corresponding value for GTN (in the presence of 5 mmoles/liter of cysteine) is approximately 80 μmoles/liter.
# [2] = test system: isolated perfused rat heart; experiment: Coronary flow increase and tolerance in isolated perfused working rat heart; settings: for Activity Drop in flow / Maximum Coronary Increase: 100 μM, isolated perfused rat hearts, n = 7; for Maximum Coronary Increase: x ± SEM
# From the text: Determining the lack of tolerance to the action of new organic nitrates on increasing coronary flow in isolated perfused heart.
# The purpose of the present investigation was to study the action and the development of tolerance to new organic nitrate compounds on isolated perfused rat heart. For this purpose, a rat heart was isolated and prepared as a "working heart".
# In this experimental arrangement, the heart performs defined circulatory work from which a defined oxygen consumption and coronary flow result. The action of nitrate-like compounds can be measured in this model by the drug-induced coronary flow increase.
# The resistance of the coronary vessels on an isolated working rat heart was chosen as the parameter for the detection of the action of the nitrate. A rat heart with a weight of about one gram is perfused through the left auricle with a plasma-like solution which contains nutrients and is saturated with oxygen. The left ventricle pumps the solution into the aorta against a defined pressure. Corresponding to the physiological conditions, a part of this solution flows through the coronary vessels for supplying the heart itself. At a defined work of the heart, this fraction, from which the coronary resistance can be calculated, is constant. The addition of a nitrate or other coronary dilating drug causes a drop in this coronary resistance. Therefore, if a constant concentration of an organic nitrate is introduced to the heart, then, after an initial decrease of the resistance, a partial loss of activity occurs within 20 minutes. On this model, the substances also show a coronary dilating effect, but this is not followed by a loss in activity. The maximum drop of the coronary resistance is still completely present after 60 minutes. The tested compounds were compared in an equimolar dosage with 10^-4 M nitroglycerin trinitrate. Continuous infusion of nitroglycerin causes a rapid coronary flow increase by 7.6±1.88 ml/min gww (x±SD). […] Upon further perfusion, the action of nitroglycerin is unchanged. In this experimental model, the new nitrates also show a coronary flow increase, but this is followed by only a very slight drop in the activity.
# [3] = oral and intravenous administration
# [4] = working heart model, guinea pig
# [5] = continuous infusion, 10^-4 M, isolated working rat heart
smiles,measurement,setting,value
"O=[N+]([O-])O[C@@H]1CO[C@H]2[C@@H]1OC[C@@H]2O [ISM-5, isosorbid-5-mononitrate]",extensibility of the air chamber,[1]; [3],increased significantly
same,low pressure system pressure,[1]; [3],decreased
same,mean pressure,[1]; [3],hardly effected
same,systolic blood pressure,[1]; [3],slight decrease
CCOC(=O)[C@H](CS)NC(=O)C(C)(C)CO[N+](=O)[O-] [N-(3-nitratopivaloyl)-cysteine ethyl ester],EC25,"guinea pig heart; working heart model, guinea pig, converted from μg per liter",1.3 µM
same,EC25,"guinea pig heart; working heart model, guinea pig, per liter of perfusion medium",0.38 µg/mL
same,weakening of the coronary dilating effect (tolerance development),"guinea pig heart; one hour drenching perfusion, any dose, guinea pig heart",No weakening of the coronary dilating effect
same,effect on coronary flow,"guinea pig heart; working heart model, guinea pig, very low dose range",concentration-dependent increase of the coronary flow
same,activation of guanyl cyclase (formation of cGMP per unit time),isolated guanyl cyclase,concentration-dependent activation of the enzyme
same,activation of guanyl cyclase without cysteine,"isolated guanyl cyclase; in vitro, absence of cysteine",activation occurs in vitro even in the absence of cysteine
same,EC50,isolated guanyl cyclase,~200 µM
same,Activity Drop in flow,[2],5.2%
same,Maximum Coronary Increase,[2],6.6 ± 0.88 ml/min gww
same,bioavailability (comparison between intravenous and oral administration),[1],good bioavailability
same,course of action on circulatory parameters,[1],typical of a nitrate
CCOC(=O)[C@H](CCSC)NC(=O)C(C)(C)CO[N+](=O)[O-] [N-(3-nitratopivaloyl)-methionine ethyl ester],Activity Drop in flow,[2],7.0%
same,Maximum Coronary Increase,[2],8.3 ± 0.92 ml/min gww
same,bioavailability (comparison between intravenous and oral administration),[1],good bioavailability
"O=[N+]([O-])OCC(CO[N+](=O)[O-])O[N+](=O)[O-] [nitroglycerine, glycerol trinitrate, reference compound]",EC25,guinea pig heart; [4],5 µg/mL
same,factor by which the concentration for 25% flow increase is higher than for Nitrato-Piv-Cy-Et,guinea pig heart; [4],≥ 12 times
same,EC50,isolated guanyl cyclase; in the presence of 5 mmoles/liter of cysteine,~80 µM
same,Activity Drop in flow,[2],56.0%
same,Maximum Coronary Increase,[2],7.6 ± 0.71 ml/min gww
same,coronary flow increase (x±SD),[2]; [5],7.6±1.88 ml/min gww
same,decrease of flow within 20 minutes,[2]; [5],55.9%
